Laboratory results as given in US20110166112A1, “METHOD FOR STIMULATING PLATELET PRODUCTION” (Eisai, Inc., priority 2009, published 2011).

System: subjects with chronic ITP
Experiment: Combined 28-day and 6-month rollover studies of E5501: safety (TEAEs, serious TEAEs, thromboembolic events, neoplasms, liver toxicity, discontinuations)
Assay type: in vivo, human
From the text: Primary Endpoint: The primary endpoint was to assess the safety and tolerability to E5501, including AEs and clinical laboratory parameters, over the 6 additional months of treatment.
In this way, safety data reflect each subject's complete duration of exposure to E5501 starting with lead-in the previous study and continuing into the current study.
Following Protocol Amendment 4, the current study contained a flexible dose regimen; therefore, this study was considered to have an open-label, uncontrolled, single-arm design. […] This was the method used to assess safety. • Grouping method B was based on both treatment received and day 28 platelet response to study drug in Study the previous study. This was the method used for the analysis of efficacy for the FAS and the SE population.
Overall Adverse Events. […] The primary focus is on summary statistics for the entire safety population and provides an overall safety profile for E5501. The summary statistics for each group, e.g., lower ⅓, middle ⅓ and upper ⅓ average daily dose levels, is secondary and provides further safety information across the 3 dose levels.

[1] = Middle ⅓ dose (≧8.85-<13.5 mg), N=22
[2] = Safety Population, Middle ⅓ Mean Daily Dose Level (≧8.85-<13.5 mg)
[3] = Upper ⅓ dose (≧13.5-≦25.7 mg), N=20
[4] = combined studies, E5501-treated subjects overall
[5] = one subject, 5 mg/day, approximately 21 days after initiation, grade 2
[6] = one subject, 20 mg/day, approximately 164 days after initiation, grade 3

O=C(Nc1nc(-c2cc(Cl)cs2)c(N2CCN(C3CCCCC3)CC2)s1)c1cnc(N2CCC(C(=O)O)CC2)c(Cl)c1 [E5501, 1-(3-chloro-5-{[4-(4-chlorothiophen-2-yl)-5-(4-cyclohexylpiperazin-1-yl)thiazol-2-yl]carbamoyl}pyridine-2-yl)piperidine-4-carboxylic acid]
Vomiting, % of subjects [1]: (9.1) %
Vomiting, n of subjects [1]: 2
Withdrawal due to TEAE, % of subjects [1]: (9.1) %
Withdrawal due to TEAE, n of subjects [1]: 2
Discontinuation in 501-CL-003, PC increase to ≧500,000/mm^3 (Safety Population, Lower ⅓ Mean Daily Dose Level (2.5-<8.85 mg)): 0 n
Discontinuation in 501-CL-003, PC increase to ≧500,000/mm^3 [2]: 0 n
Discontinuation in 501-CL-004, PC increase to ≧500,000/mm^3 [2]: 0 n
Discontinuation in 501-CL-003, Adverse Event or SAE (Safety Population, Upper ⅓ Mean Daily Dose Level (≧13.5-≦25.7 mg)): 0 n
Abdominal pain upper, % of subjects (Total E5501, N=64): (4.7) %
Abdominal pain upper, n of subjects (Total E5501, N=64): 3
Any TEAE, % of subjects (Total E5501, N=64): (96.9) %
Any TEAE, n of subjects (Total E5501, N=64): 62
Arthralgia, % of subjects (Total E5501, N=64): (14.1) %
Arthralgia, n of subjects (Total E5501, N=64): 9
Asthenia, % of subjects (Total E5501, N=64): (6.3) %
Asthenia, n of subjects (Total E5501, N=64): 4
Back pain, % of subjects (Total E5501, N=64): (9.4) %
Back pain, n of subjects (Total E5501, N=64): 6
Constipation, % of subjects (Total E5501, N=64): (4.7) %
Constipation, n of subjects (Total E5501, N=64): 3
Contusion, % of subjects (Total E5501, N=64): (18.8) %
Contusion, n of subjects (Total E5501, N=64): 12
Cough, % of subjects (Total E5501, N=64): (4.7) %
Cough, n of subjects (Total E5501, N=64): 3
Deaths, n of subjects (Total E5501, N=64): 0
Diarrhoea, % of subjects (Total E5501, N=64): (14.1) %
Diarrhoea, n of subjects (Total E5501, N=64): 9
Dizziness, % of subjects (Total E5501, N=64): (7.8) %
Dizziness, n of subjects (Total E5501, N=64): 5
Dose interruption due to TEAE, % of subjects (Total E5501, N=64): (12.5) %
Dose interruption due to TEAE, n of subjects (Total E5501, N=64): 8
Dyspnoea, % of subjects (Total E5501, N=64): (9.4) %
Dyspnoea, n of subjects (Total E5501, N=64): 6
Ecchymosis, % of subjects (Total E5501, N=64): (6.3) %
Ecchymosis, n of subjects (Total E5501, N=64): 4
Epistaxis, % of subjects (Total E5501, N=64): (23.4) %
Epistaxis, n of subjects (Total E5501, N=64): 15
Fatigue, % of subjects (Total E5501, N=64): (34.4) %
Fatigue, n of subjects (Total E5501, N=64): 22
Gingival bleeding, % of subjects (Total E5501, N=64): (10.9) %
Gingival bleeding, n of subjects (Total E5501, N=64): 7
Headache, % of subjects (Total E5501, N=64): (32.8) %
Headache, n of subjects (Total E5501, N=64): 21
Insomnia, % of subjects (Total E5501, N=64): (7.8) %
Insomnia, n of subjects (Total E5501, N=64): 5
Migraine, % of subjects (Total E5501, N=64): (4.7) %
Migraine, n of subjects (Total E5501, N=64): 3
Mouth haemorrhage, % of subjects (Total E5501, N=64): (3.1) %
Mouth haemorrhage, n of subjects (Total E5501, N=64): 2
Nausea, % of subjects (Total E5501, N=64): (9.4) %
Nausea, n of subjects (Total E5501, N=64): 6
Pain in extremity, % of subjects (Total E5501, N=64): (9.4) %
Pain in extremity, n of subjects (Total E5501, N=64): 6
Petechiae, % of subjects (Total E5501, N=64): (9.4) %
Petechiae, n of subjects (Total E5501, N=64): 6
Platelet count increased, % of subjects (Total E5501, N=64): (9.4) %
Platelet count increased, n of subjects (Total E5501, N=64): 6
Serious TEAE, % of subjects (Total E5501, N=64): (7.8) %
Serious TEAE, n of subjects (Total E5501, N=64): 5
Serious treatment-related TEAEs, % of subjects (Total E5501, N=64): (3.1) %
Serious treatment-related TEAEs, n of subjects (Total E5501, N=64): 2
Severe (grade 3-4) TEAEs, % of subjects (Total E5501, N=64): (25.0) %
Severe (grade 3-4) TEAEs, n of subjects (Total E5501, N=64): 16
Somnolence, % of subjects (Total E5501, N=64): (3.1) %
Somnolence, n of subjects (Total E5501, N=64): 2
Suspected drug-related AEs, % of subjects (Total E5501, N=64): (64.1) %
Suspected drug-related AEs, n of subjects (Total E5501, N=64): 41
Upper respiratory tract infection, % of subjects (Total E5501, N=64): (9.4) %
Upper respiratory tract infection, n of subjects (Total E5501, N=64): 6
Vomiting, % of subjects (Total E5501, N=64): (10.0) %
Vomiting, n of subjects (Total E5501, N=64): 7
Withdrawal due to TEAE, % of subjects (Total E5501, N=64): (10.9) %
Withdrawal due to TEAE, n of subjects (Total E5501, N=64): 7
Abdominal pain upper, % of subjects [3]: (15.0) %
Abdominal pain upper, n of subjects [3]: 3
Any Serious TEAE, n (%) of subjects [3]: 1 (5.0) n (%)
Any TEAE, % of subjects [3]: (100.0) %
Any TEAE, n of subjects [3]: 20
Arthralgia, % of subjects [3]: (20.0) %
Arthralgia, n of subjects [3]: 4
Asthenia, % of subjects [3]: (5.0) %
Asthenia, n of subjects [3]: 1
Back pain, % of subjects [3]: (15.0) %
Back pain, n of subjects [3]: 3
Constipation, n of subjects [3]: 0
Contusion, % of subjects [3]: (30.0) %
Contusion, n of subjects [3]: 6
Cough, % of subjects [3]: (10.0) %
Cough, n of subjects [3]: 2
Deaths, n of subjects [3]: 0
Diarrhoea, % of subjects [3]: (25.0) %
Diarrhoea, n of subjects [3]: 5
Dizziness, % of subjects [3]: (15.0) %
Dizziness, n of subjects [3]: 3
Dose interruption due to TEAE, % of subjects [3]: (10.0) %
Dose interruption due to TEAE, n of subjects [3]: 2
Dyspnoea, % of subjects [3]: (5.0) %
Dyspnoea, n of subjects [3]: 1
Ecchymosis, % of subjects [3]: (10.0) %
Ecchymosis, n of subjects [3]: 2
Epistaxis, % of subjects [3]: (40.0) %
Epistaxis, n of subjects [3]: 8
Fatigue, % of subjects [3]: (35.0) %
Fatigue, n of subjects [3]: 7
Gingival bleeding, % of subjects [3]: (20.0) %
Gingival bleeding, n of subjects [3]: 4
Headache, % of subjects [3]: (40.0) %
Headache, n of subjects [3]: 8
Insomnia, % of subjects [3]: (5.0) %
Insomnia, n of subjects [3]: 1
Migraine, % of subjects [3]: (10.0) %
Migraine, n of subjects [3]: 2
Mouth haemorrhage, % of subjects [3]: (10.0) %
Mouth haemorrhage, n of subjects [3]: 2
Nausea, % of subjects [3]: (20.0) %
Nausea, n of subjects [3]: 4
Pain in extremity, % of subjects [3]: (10.0) %
Pain in extremity, n of subjects [3]: 2
Petechiae, % of subjects [3]: (10.0) %
Petechiae, n of subjects [3]: 2
Platelet count increased, % of subjects [3]: (10.0) %
Platelet count increased, n of subjects [3]: 2
Serious TEAE Cerebrovascular accident, n (%) of subjects [3]: 1 (5.0) n (%)
Serious TEAE Chest pain, n (%) of subjects [3]: 1 (5.0) n (%)
Serious TEAE Diarrhoea, n (%) of subjects [3]: 1 (5.0) n (%)
Serious TEAE Haemorrhage intracranial, n (%) of subjects [3]: 0 n (%)
Serious TEAE Lethargy, n (%) of subjects [3]: 0 n (%)
Serious TEAE Mitral valve incompetence, n (%) of subjects [3]: 1 (5.0) n (%)
Serious TEAE Myocardial infarction, n (%) of subjects [3]: 0 n (%)
Serious TEAE Nausea, n (%) of subjects [3]: 0 n (%)
Serious TEAE Pelvic venous thrombosis, n (%) of subjects [3]: 0 n (%)
Serious TEAE Platelet count decreased, n (%) of subjects [3]: 0 n (%)
Serious TEAE Pneumonia, n (%) of subjects [3]: 0 n (%)
Serious TEAE Pyrexia, n (%) of subjects [3]: 1 (5.0) n (%)
Serious TEAE Thrombocytopenia, n (%) of subjects [3]: 0 n (%)
Serious TEAE Transient ischaemic attack, n (%) of subjects [3]: 0 n (%)
Serious TEAE Vomiting, n (%) of subjects [3]: 1 (5.0) n (%)
Serious TEAE, % of subjects [3]: (5.0) %
Serious TEAE, SOC Blood and lymphatic system disorders, n (%) of subjects [3]: 0 n (%)
Serious TEAE, SOC Cardiac disorders, n (%) of subjects [3]: 1 (5.0) n (%)
Serious TEAE, SOC Gastrointestinal disorders, n (%) of subjects [3]: 1 (5.0) n (%)
Serious TEAE, SOC General disorders and administration site conditions, n (%) of subjects [3]: 1 (5.0) n (%)
Serious TEAE, SOC Infections and infestations, n (%) of subjects [3]: 0 n (%)
Serious TEAE, SOC Investigations, n (%) of subjects [3]: 0 n (%)
Serious TEAE, SOC Nervous system disorders, n (%) of subjects [3]: 1 (5.0) n (%)
Serious TEAE, SOC Vascular disorders, n (%) of subjects [3]: 0 n (%)
Serious TEAE, n of subjects [3]: 1
Serious treatment-related TEAEs, n of subjects [3]: 0
Severe (grade 3-4) TEAEs, % of subjects [3]: (35.0) %
Severe (grade 3-4) TEAEs, n of subjects [3]: 7
Somnolence, % of subjects [3]: (10.0) %
Somnolence, n of subjects [3]: 2
Suspected drug-related AEs, % of subjects [3]: (65.0) %
Suspected drug-related AEs, n of subjects [3]: 13
Upper respiratory tract infection, % of subjects [3]: (15.0) %
Upper respiratory tract infection, n of subjects [3]: 3
Vomiting, % of subjects [3]: (20.0) %
Vomiting, n of subjects [3]: 4
Withdrawal due to TEAE, % of subjects [3]: (10.0) %
Withdrawal due to TEAE, n of subjects [3]: 2
treated subjects with thromboembolic events (both studies combined): approximately 6%
subjects with thromboembolic events (both studies combined, doses of 10 mg/day or higher): 4 subjects
subjects with TEAE possibly or probably treatment related (combined studies): 64.1%
subjects with TEAEs that led to interruption of study treatment (combined studies): 8 subjects
subjects with TEAEs that led to premature discontinuation of study treatment (combined studies): Seven
subjects who experienced one or more TEAEs (combined studies, 64 subjects): 96.9%
Epistaxis [4]: 23.4%
Fatigue [4]: 34.4%
Headache [4]: 32.8%
Vomiting [4]: 10.9%
arthralgia [4]: 14.1%
contusion [4]: 18.8%
diarrhea [4]: 14.1%
gingival bleeding [4]: 10.9%
serious TEAEs (combined studies, all): 16 cases
subjects reporting serious TEAEs (combined studies, all): Five
deaths (during the study): No deaths occurred
neoplastic events of interest (during this study): Three
serious TEAEs (lower ⅓ dose level group): 1 cases
subjects reporting serious TEAEs (lower ⅓ dose level group): 1 subjects
serious TEAEs (middle ⅓ dose level group): 9 cases
subjects reporting serious TEAEs (middle ⅓ dose level group): 3 subjects
serum ALT [5]: 210 U/L
serum AST [5]: 143 U/L
ALT [6]: 421 U/L
AST [6]: 431 U/L
serious TEAEs (upper ⅓ dose level group): 6 cases
subjects reporting serious TEAEs (upper ⅓ dose level group): 1 subjects
